These results are taken from article PMC9430628 (Microbiology Spectrum, 2022).

Assay [1] concerns rNA (N-acyl-L-amino acid amidohydrolase NA). In words: HPLC of OTalpha formed, Michaelis-Menten nonlinear fit. The format is biochemical, Stenotrophomonas sp. CW117. The conditions noted are these: PBS pH 7.2, 42 °C, 6 h; OTA 15-65 μg/L.
For assay [2], the system named is T1, rADH3 (amidohydrolase ADH3).
T1 construct: gene H7691_12935
The conditions noted are these: conditions not given here (as in the authors' earlier paper); cited from earlier work.

Each structure is given as a SMILES string.

The Km is the concentration of substrate that gives half-maximal velocity. On to `C[C@@H]1Cc2c(Cl)cc(C(=O)N[C@@H](Cc3ccccc3)C(=O)O)c(O)c2C(=O)O1` [Ochratoxin A], for which the Michaelis-Menten constant (Km) in assay [1] is 3.8 µM; in assay [2] it was 0.039 µM.
